Test results reported in patent US4271163A, “Novel 3,4-diaza-bicyclo[4.1.0]hept-2-en-5-ones, their preparation, and therapeutic agents containing these compounds” (BASF Aktiengesellschaft, priority 1978, dated 1981).
Converted amounts (≈) assume the structure as drawn. Read-outs that look alike come from different tables or passages of the source.

What was measured:
human thrombocytes = assay: Inhibition of the collagen-induced aggregation of human thrombocytes in vitro; type: cell-based; settings: for EC50: 10 min, read-out: Inhibition of collagen-induced thrombocyte aggregation in vitro, EC 50%; for Inhibition of aggregation, R.A. (relative activity): acetylsalicylic acid = 1.00
Method: 1. Inhibition of the collagen-induced aggregation of human thrombocytes in vitro.
(§1) Thrombocyte-rich plasma is obtained by centrifuging venous citrate blood (300 g, 10 minutes duration at 4° C.). The photometric measurement of the thrombocyte aggregation is carried out with addition of MgCl2 (final concentration 10 millimoles/l) and of collagen Stago (final concentration 0.02 mg/ml) in a Born Mk 3 aggregometer. The maximum extinction change/sec is used as a measure of the aggregation.
The aggregation-inhibiting activity of the substances is tested after an incubation time of 10 minutes.
The EC 50% is taken to be the concentration causing 50% inhibition of aggregation.
(§2) The effective doses or effective concentrations were calculated from the linear relationships between the logarithm of the dose or concentration and the logarithm of the effect, by means of regression analysis.
(§3) Acetylsalicylic acid was used as the reference substance for the inhibition of thrombocyte aggregation and dihydralazine for the anti-hypertensive effect.

rat thrombocytes = assay: Inhibition of the collagen-induced aggregation of rat thrombocytes ex vivo; type: in vivo, rat (male Sprague-Dawley); settings: for ED (33%): Rattus norvegicus, read-out: Inhibition of thrombocyte aggregation, ED 33%; for Inhibition of thrombocyte aggregation, R.A. (relative activity): acetylsalicylic acid = 1.00
Method: as §1
2. Inhibition of the collagen-induced aggregation of rat thrombocytes ex vivo.
The substances are administered orally to groups of 10-15 male Sprague-Dawley rat weighing 200-250 g. 1-4 hours after administration, blood is taken under ether narcosis and thrombocyte-rich plasma is obtained by centrifuging. The aggregation after addition of collagen is measured as indicated above. The ED 33% is determined as the dose which inhibits the collagen-induced thrombocyte aggregation by 33%.
as §2, §3

[1] = system: spontaneously hypertonic rats; assay: Anti-hypertensive effect on spontaneously hypertonic rats; type: in vivo, rat (male spontaneously hypertonic Okamoto); settings: for ED (20%): Rattus norvegicus, 2 h, dose which lowers the blood pressure by 20% compared to the control group; for ED (20%) / Anti-hypertensive effect, R.A.: oral administration; for Anti-hypertensive effect, R.A.: dihydralazine = 1.00
Method: 4. Anti-hypertensive effect on spontaneously hypertonic rats.
The substances are administered orally to groups of 4-8 male spontaneously hypertonic Okamoto rats weighing 270-340 g. Before, and 2 hours after, the administration, the systolic blood pressure is measured non-surgically by means of piezo-electric crystal sensors.
The ED 20% is determined as the dose which lowers the systolic pressure by 20%, taking into account the values found with untreated control animals.
as §2, §3

narcotized rats = assay: Anti-hypertensive effect on narcotized rats; type: in vivo, rat (male Sprague-Dawley); settings: rats under urethane narcosis, intraperitoneal; for ED (20%): Rattus norvegicus, ip, dose which lowers the blood pressure by 20%, read-out: Reduction in blood pressure, ED 20%; for Reduction in blood pressure, R.A. (relative activity): dihydralazine = 1.00
Method: 3. Anti-hypertensive effect on narcotized rats.
To test the anti-hypertensive effect, the substances are administered intraperitoneally to groups of 3-5 male Sprague-Dawley rats weighing 240-280 g, under urethane narcosis ([…] given intraperitoneally).
The measurement of the blood pressure in the carotid artery is carried out by means of Statham transducers. The ED 20% is determined as the dose which lowers the mean carotid blood pressure by 20%.
as §2, §3

[2] = human thrombocytes in vitro, concentration which inhibits the collagen-induced aggregation by 50%, 10 minutes incubation

| SMILES | EC50 (human thrombocytes; Homo sapiens) [µg/mL] | ED (33%) (rat thrombocytes; po) [mg/kg] | Inhibition of thrombocyte aggregation, R.A. (relative activity) (rat thrombocytes; rats, oral administration) | ED (20%) [1] [mg/kg] | Anti-hypertensive effect, R.A. [1] | ED (20%) (narcotized rats) [mg/kg] | Reduction in blood pressure, R.A. (relative activity) (narcotized rats) | Anti-hypertensive effect in spontaneously hypertonic rats after oral administration (in words) ([1]; oral) | EC50 (human thrombocytes; [2]) [µg/mL] | Inhibition of aggregation, R.A. (relative activity) (human thrombocytes; human thrombocytes in vitro) | ED (33%) (rat thrombocytes; rats, oral administration, dose which inhibits the collagen-induced aggregation by 33%) [mg/kg] | Inhibition of thrombocyte aggregation after oral administration in vivo (in words) (rat thrombocytes; rats, oral, versus acetylsalicylic acid) |
| --- | --- | --- | --- | --- | --- | --- | --- | --- | --- | --- | --- | --- |
| CC(=O)Oc1ccccc1C(=O)O [Acetylsalicylic acid, reference compound] | 494 (≈ 2740 µM) | 134 | 1.00 | – | – | – | – | – | – | – | – | – |
| NNc1nnc(NN)c2ccccc12 [Dihydralazine, reference compound] | – | – | – | 6.85 | 1.00 | 0.337 | 1.0 | – | – | – | – | – |
| CC(=O)Nc1ccc(C2=NNC(=O)C3CC23)cc1 (stereo not shown) [Example 7, 2-(p-acetylaminophenyl)-3,4-diaza-bicyclo[4.1.0]hept-2-en-5-one] | – | – | 4.36 | 8.65 | 0.79 | 0.193 | 1.75 | demonstrable | 0.14 (≈ 0.576 µM) | 3530 | 30.7 | far surpasses the effect of acetylsalicylic acid |
| O=CNc1ccc(C2=NNC(=O)C3CC23)cc1 (stereo not shown) [Example 10, 2-(p-formylaminophenyl)-3,4-diaza-bicyclo[4.1.0]hept-2-en-5-one] | – | – | – | – | – | 0.253 | 1.33 | – | 6.81 (≈ 29.7 µM) | 73 | – | – |
| O=C(CCl)Nc1ccc(C2=NNC(=O)C3CC23)cc1 (stereo not shown) [Example 12, 2-(p-chloroacetylaminophenyl)-3,4-diaza-bicyclo[4.1.0]hept-2-en-5-one] | – | – | – | – | – | 0.299 | 1.13 | – | 0.95 (≈ 3.42 µM) | 518 | – | – |
| C=CC(=O)Nc1ccc(C2=NNC(=O)C3CC23)cc1 (stereo not shown) [Example 14, 2-(p-acryloylaminophenyl)-3,4-diaza-bicyclo[4.1.0]hept-2-en-5-one] | – | – | – | – | – | 0.298 | 1.13 | – | 0.38 (≈ 1.49 µM) | 1310 | – | – |
| CCCC(=O)Nc1ccc(C2=NNC(=O)C3CC23)cc1 (stereo not shown) [Example 15, 2-(p-butyrylaminophenyl)-3,4-diaza-bicyclo[4.1.0]hept-2-en-5-one] | – | – | – | – | – | 1.88 | 0.18 | – | 1.87 (≈ 6.89 µM) | 264 | – | – |
| CC(C)C(=O)Nc1ccc(C2=NNC(=O)C3CC23)cc1 (stereo not shown) [Example 16, 2-(p-isobutyrylaminophenyl)-3,4-diaza-bicyclo[4.1.0]hept-2-en-5-one] | – | – | – | – | – | 0.402 | 0.84 | – | 4.88 (≈ 18 µM) | 101 | – | – |
| CCC(C)C(=O)Nc1ccc(C2=NNC(=O)C3CC23)cc1 (stereo not shown) [Example 18, 2-[p-(2-methylbutyrylamino)-phenyl]-3,4-diaza-bicyclo[4.1.0]hept-2-en-5-one] | – | – | – | – | – | 0.9 | 0.37 | – | 3.99 (≈ 14 µM) | 124 | – | – |
| O=C(CCCl)Nc1ccc(C2=NNC(=O)C3CC23)cc1 (stereo not shown) [Example 19, 2-[p-(3-chloropropionylamino)-phenyl]-3,4-diaza-bicyclo[4.1.0]hept-2-en-5-one] | – | – | – | – | – | 0.688 | 0.49 | – | 3.52 (≈ 12.1 µM) | 140 | – | – |
| O=C(CCCCl)Nc1ccc(C2=NNC(=O)C3CC23)cc1 (stereo not shown) [Example 21, 2-[p-(4-chlorobutyrylamino)-phenyl]-3,4-diaza-bicyclo[4.1.0]hept-2-en-5-one] | – | – | – | – | – | 6.81 | 0.05 | – | 2.27 (≈ 7.42 µM) | 218 | – | – |
| CC(C)(CBr)C(=O)Nc1ccc(C2=NNC(=O)C3CC23)cc1 (stereo not shown) [Example 22, 2-(p-bromopivaloylaminophenyl)-3,4-diaza-bicyclo[4.1.0]hept-2-en-5-one] | – | – | – | – | – | 2.96 | 0.11 | – | 3.47 (≈ 9.53 µM) | 142 | – | – |
| O=C(Nc1ccc(C2=NNC(=O)C3CC23)cc1)C(Cl)Cl (stereo not shown) [Example 23, 2-(p-dichloroacetylaminophenyl)-3,4-diaza-bicyclo[4.1.0]hept-2-en-5-one] | – | – | – | – | – | 1.5 | 0.23 | – | 2.99 (≈ 9.58 µM) | 165 | – | – |
| CC(Cl)(Cl)C(=O)Nc1ccc(C2=NNC(=O)C3CC23)cc1 (stereo not shown) [Example 24, 2-[p-(2,2-dichloropropionylamino)-phenyl]-3,4-diaza-bicyclo[4.1.0]hept-2-en-5-one] | – | – | – | – | – | 10 | 0.03 | – | 3.2 (≈ 9.81 µM) | 154 | – | – |
| CC1CC1C(=O)Nc1ccc(C2=NNC(=O)C3CC23)cc1 (stereo not shown) [Example 25, 2-[p-(2-methylcyclopropylcarbonylamino)-phenyl]-3,4-diaza-bicyclo[4.1.0]hept-2-en-5-one] | – | – | – | – | – | 0.649 | 0.52 | – | 1.8 (≈ 6.35 µM) | 274 | – | – |
| CC1(C(=O)Nc2ccc(C3=NNC(=O)C4CC34)cc2)CC1(Cl)Cl (stereo not shown) [Example 26, 2-[p-(2,2-dichloro-1-methylcyclopropylcarbonylamino)-phenyl]-3,4-diaza-bicyclo[4.1.0]hept-2-en-5-one] | – | – | – | – | – | 0.786 | 0.43 | – | 1.91 (≈ 5.42 µM) | 259 | – | – |
| O=C(Nc1ccc(C2=NNC(=O)C3CC23)cc1)C1CCC1 (stereo not shown) [Example 27, 2-(p-cyclobutylcarbonylaminophenyl)-3,4-diaza-bicyclo[4.1.0]hept-2-en-5-one] | – | – | – | – | – | 0.398 | 0.85 | – | 1.42 (≈ 5.01 µM) | 348 | – | – |
| O=C(Nc1ccc(C2=NNC(=O)C3CC23)cc1)C1CCCCC1 (stereo not shown) [Example 28, 2-(p-cyclohexylcarbonylaminophenyl)-3,4-diaza-bicyclo[4.1.0]-hept-2-en-5-one] | – | – | – | – | – | 0.415 | 0.81 | – | 5.09 (≈ 16.3 µM) | 97 | – | – |
| C/C=C/C(=O)Nc1ccc(C2=NNC(=O)C3CC23)cc1 (stereo not shown) [Example 29, 2-(p-crotonoylaminophenyl)-3,4-diaza-bicyclo[4.1.0]-hept-2-en-5-one] | – | – | – | – | – | 1.71 | 0.20 | – | 2.12 (≈ 7.87 µM) | 233 | – | – |
| O=C(Nc1ccc(C2=NNC(=O)C3CC23)cc1)c1ccccc1 (stereo not shown) [Example 30, 2-(p-benzoylaminophenyl)-3,4-diaza-bicyclo[4.1.0]hept-2-en-5-one] | – | – | – | – | – | > 10 | < 0.03 | – | 6.01 (≈ 19.7 µM) | 82 | – | – |
